These results are taken from patent US10413583B2, “Synthetic substrates for enzymes that catalyze reactions of modified cysteines and related methods” (The University of Chicago, priority 2016, dated 2019).

Test [1] relates to HEPG2 cells. The test can be described thus: Fluorescence imaging of RDP-1 with HEPG2 cells (PalmB, palmitate). As to conditions: palmitate pretreatment for 6 hours. The test is classed as cell-based, human. The method, then:
HEPG2 were plated with […] of DMEM (Gibco, Gaithersburg, Md., United States of America; High Glucose, Glutamax, 10% FBS) a four well chambered imaging dish (D35C4-20-1.5-N, Cellvis, Mountain View, Calif., United States of America) which were precoated with 4 μg Poly-D-lysine (30-70 KDa, Alfa Aesar, Haverhill, Mass., United States of America) for 2 h at room temperature or overnight at 4° C. and grown to ca. 80% confluence prior to imaging. 30 min before the addition of the RDP, the cell culture media was removed and cells were washed with 500 μL of serum-free DMEM (Gibco, Gaithersburg, Md., United States of America; High Glucose, Glutamax, no FBS). The media was then replaced with 500 μL of serum-free DMEM containing 100 nM Mitotracker Deep Red (Thermo Fisher Scientific, Waltham, Mass., United States of America) to assist in focusing and processing) and either 0.1% DMSO carrier as a control or Palm B in DMSO and incubated for 30 min at 37° C. and 5% CO2. The media was removed, the cells were washed with 500 μL of Live Cell Imaging Solution (Thermo Fisher Scientific, Waltham, Mass., United States of America), and 500 μL of 1 μM RDP-1 along with the Palm B or DMSO as control in Live Cell Imaging Solution was added to each well. […]

Test [2] relates to HEPG2 cells. Kind of test: Epifluorescent imaging of DPP-5 and diacetyl rhodol in HepG2 cells (PalmB, ML348, ML349, palmitate). To be noted: 1 mM palmitate for 6 hours post-starvation. The test is classed as cell-based, human. The method, then:
250,000 HEK293T cells/well, 120,000 HeLa cells/well, or 100,000 HepG2 cells/well were plated in 700 μL DMEM glutamax (10% FBS+1% P/S) into 4-well chambered imaging dish (D35C4-20-1.5-N, Cellvis, Mountain View, Calif., United States of America), which were precoated with 5 μg Poly-D-lysine (30-70 KDa, Alfa Aesar, Haverhill, Mass., United States of America) for 2 h. After 20-24 h, the media was replaced by 1 μM Hoechst 33342 and DMSO/5 μM PalmB in 400 μL DMEM glutamax. After 30 min of incubation at 37° C., the cells were washed with 400 μL of Live Cell Imaging Solution and replaced by 1 μM DPP-5 with DMSO or 5 μM of PalmB in Live Cell Imaging Solution. After 20 min of incubation at 37° C., images were obtained on an inverted epifluorescence microscope (Olympus IX83; Olympus Corporation, Tokyo, Japan) attached with EMCCD camera (Photometrics EVOLVE™ Delta, Photometrics, Tucson, Ariz., United States of America) with 40× oil objective (N/A 1.3) for DPP-5 (excitation filter 500/20, dichroic chroma 89007, emission filter 535/30), Hoechst 33342 (excitation filter 402/15, emission filter 455/50, dichroic chroma 89013), and brightfield. Analyses were performed in ImageJ. For data analysis, the average fluorescence intensity per image in each experimental condition was obtained by selecting ROI in Brightfield and applying that to the corresponding DPP-5 image, average background fluorescence intensity was subtracted and data was normalized to the average fluorescence intensity of the DMSO control. Each experiment was repeated in at least two biological replicates with identical results.
16,000 HepG2 cells/well were plated in 100 μL DMEM glutamax (10% fetal bovine serum (FBS)) into 4 wells of a 96-well chambered imaging dish (P96-1-N, Cellvis, Mountain View Calif., United States of America), which were precoated with 0.7 μg Poly-D-lysine (30-70 KDa, Alfa Aesar, Haverhill, Mass., United States of America) for 2 hrs. After 24 h, cells were washed with Live Cell Imaging Solution and replaced by 1 μM Hoechst 33342 and DMSO/10 μM ML348/10 μM ML349/10 μM of both ML348 and ML349 in 100 μL DMEM glutamax. After 30 min of incubation at 37° C., the cells were washed with 100 μL of Live Cell Imaging Solution and replaced by 1 μM DPP-5 in Live Cell Imaging Solution. After 20 min of incubation at 37° C., images were obtained on an inverted epifluorescence microscope (Leica DMi8; Leica Microsystems, Wetzlar, Germany) equipped with a camera (Hamamatsu Orca-Flash 4.0; Hamamatsu, Hamamatsu City, Japan) with 63× oil objective (N/A 1.4) and light source (Sutter Lamda XL, 300 W Xenon; Sutter Instrument, Novato, Calif., United States of America) for DPP-5 (YFP filter cube 1525306), Hoechst 33342 (DAPI filter cube), and brightfield using Leica LASX software (Leica Microsystems, Wetzlar, Germany). Analyses were performed in ImageJ. Each experiment was repeated in three biological replicates and 8-12 images were considered for plotting bar graphs for quantification. For detailed data analysis, the average fluorescence intensity per image in each experimental condition was obtained by selecting ROI in Brightfield and applying that to the corresponding DPP-5 image, average background fluorescence intensity was subtracted and data was normalized to the average fluorescence intensity of the control experiment. […] 250,000 HEK293T cells/well were plated in 700 μL DMEM glutamax (10% FBS+1% P/S) into three wells of a 4-well chambered imaging dish (D35C4-20-1.5-N, Cellvis, Mountain View, Calif., United States of America), which were precoated with 5 μg Poly-Dlysine (30-70 KDa, Alfa Aesar, Haverhill, Mass., United States of America) for 2 h. After 18 h, the media was replaced by 1 μM Hoechst 33342 in 400 μL DMEM glutamax. […] After 20 min of incubation at 37° C., images were obtained and analyzed as described above. […]

Regarding `CCCCCCCCCCCCCCCC(=O)[O-].[Na+]` [palmitate, sodium palmitate], the “effect on APT activity as measured by RDP-1” value in the test on HEPG2 cells [1] is “a decrease in APT activity”. For the same compound, in the test on HEPG2 cells [2], the “increase in intensity of S-depalmitoylase signal as measured by DPP-5” value is ~50%.
